According to patent US20160030416A1, “METHODS OF TREATING B2-BRADYKININ RECEPTOR MEDIATED ANGIOEDEMA” (SHIRE HUMAN GENETIC THERAPIES, INC., priority 2013, published 2016):
Values after ≈ are worked out from the molar mass of the structure shown.

What was measured:
plasma extravasation = assay: Plasma extravasation (Evans blue in bladder), IV bolus, wild-type mice; format: in vivo, wild-type (WT) C57/BL6 male mice; details: for Evans blue (EB) in the bladder: controls 0.7927
Text: In vivo experiments in both wild-type (WT) C57BL/6J mice and C1-inhibited knock out (C1 INH KO) mice measured pharmacodynamic efficacy by the ability of CFMQ to block plasma extravasation, which is causative to edema, the most important symptom requiring treatment in HAE subjects. This plasma extravasation model has been used extensively in the literature to investigate the efficacy of bradykinin receptor antagonists. (Han et al., “Increased vascular permeability in C1 inhibitor-deficient mice mediated by the bradykinin type 2 receptor,” J Clin Invest, 2002 April; 109(8): 1057-1063.)
The uptake and effective blocking of plasma extravasation of CFMQ was examined following IV (intravenous) bolus administration in wild-type (WT) C57/BL6 male mice (n=4/dose group). Mice received CFMQ (HGT3711) (2 μL/g) at 1.0 μg/kg, 100 μg/kg, and/or 6 mg/kg. Following CFMQ administration and prior to the terminal time point, mice received an IV injection of Evans blue (EB) dye (30 mg/kg) and were sacrificed. The bladder was removed, dried and weighed and extracted in formamide (1.0 mL). EB concentration in the formamide extract was determined spectrophotometrically and EB content was calculated as μg EB per milligram of tissue weight. Efficacy was determined by inhibiting the accumulation of EB in the bladder.
CFMQ doses of 0.001, 0.05, 0.1, 0.25, 0.5, 1.0, and or 3.0 mg/kg were administered as IV bolus injections to WT mice (n=8/dose group).

V1a (h) = target: T1, V1a (h) (Homo sapiens, UniProt P37288); assay: Off-target receptor binding: V1a
T1 construct: expressed in transfected cells; host or cells: CHO or HEK 293 (not assigned per receptor)
T1 sequence (P37288 whole entry): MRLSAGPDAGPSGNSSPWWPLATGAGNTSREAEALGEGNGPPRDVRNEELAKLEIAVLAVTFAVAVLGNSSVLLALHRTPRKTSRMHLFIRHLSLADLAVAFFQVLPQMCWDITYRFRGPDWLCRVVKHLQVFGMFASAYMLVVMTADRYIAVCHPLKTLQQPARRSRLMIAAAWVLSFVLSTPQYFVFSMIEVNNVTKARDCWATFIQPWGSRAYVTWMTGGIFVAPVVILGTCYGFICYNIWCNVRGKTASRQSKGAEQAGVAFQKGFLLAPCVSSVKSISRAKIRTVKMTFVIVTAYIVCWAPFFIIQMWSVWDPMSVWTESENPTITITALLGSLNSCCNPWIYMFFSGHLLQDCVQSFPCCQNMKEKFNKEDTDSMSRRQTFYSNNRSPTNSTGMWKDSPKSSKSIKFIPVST
Experimental: (§1) To determine the affinity to the B2-bradykinin receptor, CFMQ was compared to a diverse set of receptors and reference agents in an in vitro assay using cells from rat heart, urinary bladder, cerebral cortex, as well as human recombinant cells (CHO and HEK 293) and other cell lines. Each assay included a ligand at a specific concentration (concentration ranging from 0.007-10 nM), in addition to a non-specific ligand (concentration ranging from […]) for incubation periods ranging from 15 minutes to 6 hours at 4°-37° C. The specific binding to the receptors was defined as the difference between the total binding and the nonspecific binding, determined in the presence of an excess of unlabeled CFMQ. The concentration causing a half-maximal inhibition of control specific binding (IC50 values) and inhibition constants (Ki) were determined, and each reference compound was within the accepted limits of the historic average (±0.5 log units).

diverse set of receptors = assay: Receptor binding and selectivity panel
Experimental: as §1

[1] = Pharmacokinetics, single oral gavage, Yucatan mini-pig; format: in vivo, female Yucatan Miniature Swine; details: PO 10 mg/kg
Experimental: CFMQ (HGT3711) was administered to female Yucatan Miniature Swine (mini-pig; n=3) by a single oral gavage at 10 mg/kg (concentration 2 mg/mL) at a dose volume of […]. This study utilized the spray-dried dispersion (SDD) (50; 50 with polymer; HPMCAS) formulation of CFMQ (HGT3711) (see below). Blood samples were taken via jugular or other suitable vein puncture prior to administration and at 0.083 (5 min), 0.25 (15 min), 0.50 (30 min), 1, 2, 4, 8, 12 and 24 hours post dose. Plasma concentrations of CFMQ (HGT3711) were determined by LC-MS/MS.

[2] = target: T2, human B2-bradykinin receptor (Homo sapiens, UniProt P30411); assay: [3H]bradykinin competition binding assay in HEK 293 cells; set-up: expressed in transfected cells; details: 2 nM [3H]bradykinin, 90-minute incubation
T2 sequence (P30411 1-391): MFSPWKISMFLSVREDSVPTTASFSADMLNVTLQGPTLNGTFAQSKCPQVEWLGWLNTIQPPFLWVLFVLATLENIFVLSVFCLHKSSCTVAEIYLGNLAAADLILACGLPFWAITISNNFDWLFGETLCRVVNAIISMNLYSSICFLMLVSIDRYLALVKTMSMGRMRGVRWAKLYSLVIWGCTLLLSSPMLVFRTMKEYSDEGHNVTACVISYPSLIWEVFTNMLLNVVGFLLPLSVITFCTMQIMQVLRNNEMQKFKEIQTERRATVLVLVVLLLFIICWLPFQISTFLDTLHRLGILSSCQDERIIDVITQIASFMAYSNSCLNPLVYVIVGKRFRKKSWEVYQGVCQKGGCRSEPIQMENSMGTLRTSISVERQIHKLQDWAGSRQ
Experimental: For determination of non-specific binding 1.25 μL of a 10 mM bradykinin (BK) solution was added to 248.8 μL incubation buffer (containing 2 nM [^3H]BK). […] Appropriate controls were prepared in the same method.
Human embryonic kidney (HEK) 293 cells stably express recombinant human B2-bradykinin receptors (10 pmol/mg protein) and were added to 96-well culture-trays and cultivated for 1-3 days, followed by incubation with 100 μL of each of the incubation buffers containing [^3H]BK. After a 90-minute incubation period and washing (4×PBS (phosphate buffered saline)) supernatants of the cell mixtures were transferred to scintillation vials and assayed for [^3H]BK in a beta-counter. Results of counts per minute (cpm) for non-specific binding were subtracted from the total cpm and were used for curve fit and IC50 calculation.

[3] = Solubility of CFMQ in vehicles; format: physicochemical
Experimental: The physicochemical properties of 1-((4-Chloro-3-(((4-(4-fluoro-1H-pyrazol-1-yl)-2-methylquinolin-8-yl)oxy)methyl)-6-methylpyridin-2-yl)methyl)-2-oxo-1,2-dihydropyridine-3-carbonitrile (CFMQ) were determined using standard methods. CFMQ was a free base with a molecular weight of 514.9 Da and was a nonhygroscopic, crystalline powder with a melting point of about 214° C.

[4] = female, Yucatan, minipig, plasma

For Cc1cc(Cl)c(COc2cccc3c(-n4cc(F)cn4)cc(C)nc23)c(Cn2cccc(C#N)c2=O)n1 [CFMQ, 1-((4-Chloro-3-(((4-(4-fluoro-1H-pyrazol-1-yl)-2-methylquinolin-8-yl)oxy)methyl)-6-methylpyridin-2-yl)methyl)-2-oxo-1,2-dihydropyridine-3-carbonitrile], the “Evans blue (EB) in the bladder” value (plasma extravasation; IV bolus 1.0 μg/kg) was 0.7602 EB mg/kg tissue, the “Evans blue (EB) in the bladder” value (plasma extravasation; IV bolus 6 mg/kg) was 0.0701 EB mg/kg tissue and the “inhibition of plasma extravasation vs vehicle” value (plasma extravasation; IV bolus 0.5, 1.0, and or 3.0 mg/kg, n=8) was “significant inhibition of plasma extravasation”. For the same molecule, the “inhibition of extravasation” value (plasma extravasation; IV bolus 1.0 and or 100 μg/kg) was “did not inhibit extravasation”, the ED50 (plasma extravasation; Mus musculus, intravenous, WT model, read-out: effective dose (ED50), plasma extravasation) was 0.46 mg/kg and the “block of plasma extravasation” value (plasma extravasation; intravenous, high doses (500 μg/kg)) was “blocked plasma extravasation completely”. The IC50 (V1a (h)) was 1500 nM, the Ki (V1a (h)) was 9400 nM and the nH (V1a (h)) was 1.3. For the same molecule, the inhibition at 10 µM (V1a (h); CFMQ at 10 μM) was 51%, the “binding selectivity for B2-bradykinin receptor” value (diverse set of receptors) was “selective” and the “clinical observations” value ([1]; mini-pig) was “no abnormal clinical observations”. The AUC(0-inf) [1, 4] was 11100 ng·h/mL, the AUC(0-t) [1, 4] was 10600 ng·h/mL and the half-life [1, 4] was 57 h. The concentration at 4 hr ([1]; female, Yucatan, pig (miniature swine), plasma, 4.0 hr, read-out: Average Concentration of HGT3711) was 1150 ng/mL, the concentration at 8 hr ([1]; female, Yucatan, pig (miniature swine), plasma, 8.0 hr, read-out: Average Concentration of HGT3711) was 284 ng/mL and the concentration at 12 hr ([1]; female, Yucatan, pig (miniature swine), plasma, 12 hr, read-out: Average Concentration of HGT3711) was 112 ng/mL. It also gave a concentration at 24 hr ([1]; female, Yucatan, pig (miniature swine), plasma, 24 hr, read-out: Average Concentration of HGT3711) of 14.2 ng/mL, a concentration at 0 hr ([1]; female, Yucatan, pig (minipig), plasma, 0 hr, read-out: Average Concentration of HGT3711) of 0 ng/mL and a concentration at 0.25 hr ([1]; female, Yucatan, pig (minipig), plasma, 0.25 hr, read-out: Average Concentration of HGT3711) of 80 ng/mL. It also gave a concentration at 0.5 hr ([1]; female, Yucatan, pig (minipig), plasma, 0.5 hr, read-out: Average Concentration of HGT3711) of 596 ng/mL, a concentration at 1 hr ([1]; female, Yucatan, pig (minipig), plasma, 1.0 hr, read-out: Average Concentration of HGT3711) of 1560 ng/mL and a concentration at 2 hr ([1]; female, Yucatan, pig (minipig), plasma, 2.0 hr, read-out: Average Concentration of HGT3711) of 2060 ng/mL. The IC50 [2] was 3.3 nM, the solubility ([3]; 0.1 N HCl, simulated gastric fluid, HCl 0.1N, pH 1.3) was 320 µg/mL (≈ 621 µM) and the solubility ([3]; Labrasol (glyceryl and polyethylene glycol esters), aqueous with cosolvent or surfactant or cyclodextrin) was 1430 µg/mL (≈ 2780 µM). The solubility ([3]; NaOH 0.1N, pH 12.8, aqueous buffer) was under 10 µg/mL, the solubility ([3]; PEG400 (polyethylene glycol 400), organic solvent or mixture) was 2370 µg/mL (≈ 4600 µM) and the solubility ([3]; Tween 20 (polyoxyethylene (20) sorbitan monolaurate), aqueous with cosolvent or surfactant or cyclodextrin) was 870 µg/mL (≈ 1690 µM). It also gave a solubility ([3]; Tween 80 (polyoxyethylene (80) sorbitan monolaurate), aqueous with cosolvent or surfactant or cyclodextrin) of 3500 µg/mL (≈ 6800 µM), a solubility ([3]; citrate/NaOH buffer, aqueous buffer, Citrate/NaOH pH 2) of 20 µg/mL (≈ 38.8 µM) and a solubility ([3]; citrate/NaOH buffer, aqueous buffer, Citrate/NaOH pH 5) of under 10 µg/mL. For the same molecule, the solubility ([3]; ethanol, organic solvent or mixture) was 170 µg/mL (≈ 330 µM), the solubility ([3]; glycerol, organic solvent or mixture) was 10 µg/mL (≈ 19.4 µM) and the solubility ([3]; olive oil, oil or lipid) was under 10 µg/mL. It also gave a solubility ([3]; organic solvent or mixture, Acetic acid, glacial) of 19900 µg/mL (≈ 38600 µM), a solubility ([3]; phosphate buffer, pH 7, aqueous buffer) of under 10 µg/mL and a solubility ([3]; propylene glycol, organic solvent or mixture) of 100 µg/mL (≈ 194 µM). The solubility ([3]; water) was under 10 µg/mL.
